In ChEMBL document CHEMBL1201862, “PubChem BioAssay data set” (2004):
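All cell lines were grown in 96-well plates and treated with compound for 48 hours. GI50 is the concentration that inhibits growth by half.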 The source made the active and inactive calls. No stated cut-off is given here; in the data, active = GI50 up to about 1.1 µM and inactive = higher.

Assays:
Assay in all cases: NCI anticancer screen, dose series, 48 h
ACHN = tested on: ACHN
HL-60 = tested on: HL-60
UO-31 = tested on: UO-31
SR = tested on: SR
OVCAR-8 = tested on: OVCAR-8
UACC-257 = tested on: UACC-257
HCT-116 = tested on: HCT-116
NCI-H226 = tested on: NCI-H226
SN12C = tested on: SN12C
HOP-62 = tested on: HOP-62
KM12 = tested on: KM12
HT-29 = tested on: HT-29
TK-10 = tested on: TK-10
RPMI-8226 = tested on: RPMI-8226
M19-MEL = tested on: M19-MEL
M14 = tested on: M14
MOLT-4 = tested on: MOLT-4

Measured: GI50

COc1ccc2c(c1)NC1(O)c3ccccc3C(=O)C21O (stereo not drawn)
inactive: ACHN > 100 µM | HL-60 > 100 µM | UO-31 > 100 µM | SR > 100 µM | OVCAR-8 > 100 µM | UACC-257 > 100 µM | HCT-116 > 100 µM | NCI-H226 > 100 µM | SN12C > 100 µM | HOP-62 > 100 µM | KM12 > 100 µM | HT-29 > 100 µM | TK-10 > 100 µM | RPMI-8226 > 100 µM | M19-MEL > 100 µM | M14 > 100 µM | MOLT-4 > 100 µM

CCCCC#COP(=O)(OCC)OCC
inactive: ACHN > 100 µM | HL-60 > 100 µM | UO-31 > 100 µM | SR > 100 µM | OVCAR-8 > 100 µM | UACC-257 > 100 µM | HCT-116 > 100 µM | NCI-H226 > 100 µM | SN12C > 100 µM | HOP-62 > 100 µM | KM12 > 100 µM | HT-29 > 100 µM | TK-10 > 100 µM | RPMI-8226 > 100 µM | M19-MEL > 100 µM | M14 > 100 µM | MOLT-4 > 100 µM

COC(=O)C1(F)C(=O)NC(=O)NC1OC (stereo not drawn)
inactive: ACHN 29 µM | HL-60 3.09 µM | UO-31 70.8 µM | SR > 100 µM | OVCAR-8 34.1 µM | UACC-257 > 100 µM | HCT-116 7.8 µM | NCI-H226 > 100 µM | SN12C 69 µM | HOP-62 25.5 µM | KM12 21.6 µM | HT-29 22.2 µM | TK-10 > 100 µM | RPMI-8226 90.6 µM | M19-MEL 18.7 µM | MOLT-4 > 100 µM

CC(=O)OCC(=O)[C@@]1(O)CC[C@H]2[C@@H]3CCC4=CC(=O)[C@H](C)C[C@]4(C)[C@H]3[C@@H](O)C[C@@]21C
inactive: ACHN > 100 µM | HL-60 > 100 µM | SR > 100 µM | OVCAR-8 > 100 µM | UACC-257 > 100 µM | HCT-116 > 100 µM | NCI-H226 > 100 µM | SN12C > 100 µM | HOP-62 > 100 µM | KM12 > 100 µM | HT-29 > 100 µM | TK-10 > 100 µM | RPMI-8226 > 100 µM | M19-MEL > 100 µM | M14 > 100 µM

CC1=C(c2cc(C(=O)Nc3cccc(C(F)(F)F)c3)nc(NC#N)n2)Sc2ccccc2N1
inactive: ACHN > 100 µM | HL-60 > 100 µM | UO-31 > 100 µM | SR > 100 µM | UACC-257 > 100 µM | HCT-116 > 100 µM | NCI-H226 > 100 µM | SN12C > 100 µM | HOP-62 > 100 µM | KM12 > 100 µM | HT-29 > 100 µM | TK-10 > 100 µM | RPMI-8226 > 100 µM | M19-MEL > 100 µM | M14 > 100 µM | MOLT-4 > 100 µM

Cc1ccc2c(c1)C(c1cccc3ccccc13)OC2=O (stereo not drawn)
inactive: ACHN 92.9 µM | HL-60 > 100 µM | UO-31 > 100 µM | SR > 100 µM | OVCAR-8 84.5 µM | UACC-257 53.8 µM | HCT-116 > 100 µM | NCI-H226 42.9 µM | SN12C > 100 µM | HOP-62 21.4 µM | KM12 99.1 µM | HT-29 > 100 µM | TK-10 31.6 µM | M19-MEL > 100 µM | M14 41 µM | MOLT-4 > 100 µM

CS(=O)(=O)NNS(=O)(=O)c1ccc(Cl)cc1
inactive: ACHN > 100 µM | HL-60 > 100 µM | UO-31 35.6 µM | SR 62.8 µM | OVCAR-8 > 100 µM | UACC-257 > 100 µM | HCT-116 > 100 µM | NCI-H226 11 µM | SN12C > 100 µM | HOP-62 > 100 µM | KM12 > 100 µM | HT-29 > 100 µM | TK-10 > 100 µM | RPMI-8226 > 100 µM | M19-MEL > 100 µM | M14 > 100 µM | MOLT-4 55.7 µM

CCOC(=O)c1c(-c2ccccc2)oc(-c2ccccc2)c1C(=O)OCC
inactive: ACHN > 100 µM | HL-60 33.6 µM | UO-31 > 100 µM | SR 68.2 µM | OVCAR-8 > 100 µM | UACC-257 77.6 µM | HCT-116 > 100 µM | NCI-H226 > 100 µM | SN12C > 100 µM | HOP-62 > 100 µM | KM12 > 100 µM | HT-29 22.6 µM | TK-10 > 100 µM | RPMI-8226 50 µM | M19-MEL 56.4 µM | M14 > 100 µM | MOLT-4 48.1 µM

COC(=O)C1=C(c2ccc(Cl)cc2)C(O)NC(NN)=N1 (stereo not drawn)
inactive: ACHN > 100 µM | HL-60 > 100 µM | UO-31 > 100 µM | SR > 100 µM | OVCAR-8 > 100 µM | UACC-257 > 100 µM | HCT-116 > 100 µM | NCI-H226 > 100 µM | SN12C > 100 µM | HOP-62 > 100 µM | KM12 > 100 µM | HT-29 > 100 µM | TK-10 > 100 µM | RPMI-8226 > 100 µM | M19-MEL > 100 µM | M14 > 100 µM | MOLT-4 > 100 µM
